The term inhibition denotes how much of the control response was suppressed. A low value points to a response near the control. For orientation: IC50 means the midpoint of a concentration-inhibition curve.

The text below walks through data of US7307101B2, “Use of 20-HETE synthesizing enzyme inhibitors as therapy for cerebral vascular disease” (MCW Research Foundation, Inc., priority 2000, dated 2007).

Data set [1] has as its system EET formation in rat renal microsomes. Briefly: EET formation in rat renal microsomes ([3H]-AA, Example 3). Type of data set: biochemical. The note with it: highest concentration studied, 1,000 ng/ml or 5 μM. As for the experimental part: All procedure was carried out at 4° C. Renal cortex was pooled from twenty male SHR rats (6 weeks of age). They were homogenized extensively in lysis buffer (20 mM HEPES, pH 7.4, 1 mM EDTA, 100 μM p-(amidinophenyl)metanesulfonyl fluoride and 250 mM sucrose), and centrifuged at 16,000×g for 10 min. Supernatant was further centrifuged at 16,000×g for 30 min. Soluble fraction was collected and centrifuged at 200,000×g for 30 min. The resulting pellet was suspended in 50 mM MOPS buffer.
The reaction was terminated by adding formic acid and acetonitrile to a final concentration of 1% and 50%, respectively.

Data set [2] concerns rat 20-HETE synthesizing enzyme. Briefly: Synthesis of 20-HETE in rat renal microsomes ([14C]-AA). Format: biochemical. The note with it: 1.5 nM, lowest dose tested.
Experimental: Microsomes were prepared by differential centrifugation as previously described. […] The reactions were terminated by acidification to pH 3.5 using 0.1 mol/L formic acid and extracted with ethyl acetate. Metabolites were separated using a 25 cm×2 mm i.d. (Supelco Inc., Bellefonte, Pa.) C18-reverse phase HPLC column and a linear elution gradient ranging from acetonitrile:water: acetic acid (50/50/0.1) to acetonitrile:acetic acid (100/0.1) over a 40 min period. The radioactive products were monitored using a radioactive flow detector (Model 120, Radiomatic Instrument Co., Tampa, Fla.).
A further data set deals with T1, PGH1 synthase (Ovis aries, UniProt P05979).
T1 construct: the purified enzyme from ram seminal vesicles PGH1 synthase; purchased Cayman Chemical Co., Ann Arbor, Mich; host or cells: ram seminal vesicles (tissue-purified)
T1 sequence (P05979 25-600): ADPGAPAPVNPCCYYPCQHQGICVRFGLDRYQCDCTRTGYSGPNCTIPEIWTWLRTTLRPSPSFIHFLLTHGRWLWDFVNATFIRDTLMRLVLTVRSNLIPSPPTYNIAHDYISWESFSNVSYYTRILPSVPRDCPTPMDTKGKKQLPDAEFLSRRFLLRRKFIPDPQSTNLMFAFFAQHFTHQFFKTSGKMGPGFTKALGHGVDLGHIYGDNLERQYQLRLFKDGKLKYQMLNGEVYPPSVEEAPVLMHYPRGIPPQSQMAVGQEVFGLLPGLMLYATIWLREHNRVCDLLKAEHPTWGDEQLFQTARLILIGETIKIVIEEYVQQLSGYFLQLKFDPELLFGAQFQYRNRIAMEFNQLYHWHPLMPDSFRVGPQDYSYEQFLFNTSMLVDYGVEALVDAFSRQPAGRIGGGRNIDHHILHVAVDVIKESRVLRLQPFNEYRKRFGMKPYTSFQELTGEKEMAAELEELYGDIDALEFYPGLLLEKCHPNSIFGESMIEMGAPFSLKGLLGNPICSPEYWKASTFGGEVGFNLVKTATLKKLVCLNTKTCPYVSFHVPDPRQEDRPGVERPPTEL
Briefly: COX activity (conversion of AA to PGE2). Type of data set: biochemical, ram. The note with it: 10^−6 M. As for the experimental part: Reaction mixtures were incubated at 37° C. for 2 min before the addition of AA and for 2 min thereafter. All samples were run in duplicate. Amounts of PGE2 were determined by EIA after 100-400 times dilution with Tris buffer.

The test system of the next data set is rats with MCA occlusion. Briefly: Infarct volume after transient MCA occlusion. Type of data set: in vivo, rat. The settings on record: 24 h. As for the experimental part:
Adult male Wistar rats (200-250 g) were anesthetized with 2% halothane in O2 gas. The right external carotid artery (ECA) was carefully dissected. A silicon-coated suture (18 mm-long) was inserted from the lumen of the ECA to the right internal carotid artery (ICA) to occlude the origin of the right middle cerebral artery (MCA). Body temperature was maintained at 37° C. with a heating pad. […] One hour after MCA occlusion, the thread was removed to allow reperfusion of the ischemic area.
To measure infarct volume, rats were killed after 24 hours of reperfusion following transient occlusion of the MCA. Brains were flushed transcardially with physiological saline, removed from the skull, and cut into 2-mm coronal sections. The slices were immersed in 2% triphenyltetrazolium chloride (TTC) solution at 37° C. for 30 minutes.
All values were presented as mean±SEM. For statistical analysis, Dunnett's multiple-range test was used.

A further data set deals with canine neutrophils. Nature of the data set: Formation of 20-HETE by canine neutrophils. Type of data set: cell-based. The note with it: Canis lupus familiaris, Neutrophil, read-out: IC50, formation of 20-HETE by canine neutrophils; 2×10^7 cells in dog CSF, 2 hours, n=4. As for the experimental part:
Experiments were performed to determine the cell type in canine blood responsible for the formation of 20-HETE. Experiments were performed using 4 male Beagle dogs. The dogs were anesthetized with sodium pentobarbital (30 mg/kg, i.v.). Venous blood sample was drawn and immediately mixed with 1:9 volume of trisodium citrate (3.8%) as an anticoagulant. Neutrophils were prepared to 98% purity using a percoll gradient technique. CSF was drawn from the Cistema Magna by using a 20 gauge needle. Only clear CSF sample without blood was used for the present experiment. The CSF was oxygenated with mixed gas (95% O2, 5% CO2) for 30 min. Neutrophils were suspended in the oxygenated CSF and cell numbers were adjusted to 2×10^6, 6.3×10^6, and 2×10^7. Whole blood (20 μl), red blood cells (20 μl) or neutrophils were incubated in the oxygenated CSF (180 μl) including 1 mM NADPH and [^3H]-AA at 37° C. for 2 hrs. The reaction was terminated by the addition of formic acid. One hundred percent acetonitrile (200 μl) was added to the reaction buffer to adjust final concentration to 50% for HPLC separation. […] The labeled products formed were monitored using a radioactive flow detector (raytest GmbH, Straubenhardt, Germany).
The reactions were terminated by addition of formic acid. […] The labeled metabolites were monitored using a radioactive flow detector ramona 93 (raytest GmbH, Straubenhardt, Germany).

Data set [3] in a line: Physiological parameters (MAP, endtidal pCO2) during the SAH experiment. Format: in vivo, rat. The note with it: rats, any time. As to the method: Surgical preparation. Rats were anesthetized with ketamine (Ketaject® 20 mg/kg i.m.) and thiobutabarbital sodium (Inactin® 50 mg/kg i.p.). A cannula was placed in the trachea and the rats were artificially ventilated using a small animal ventilator (SAR-830, CWE, Inc., Ardmore, Pa.) with a mixture of 30% O2 in N2. The femoral vein was cannulated for the infusion of drug and the rats received an i.v. infusion of 0.9% NaCl solution at a rate of […] to replace fluid losses. The femoral artery was cannulated for measurement of mean arterial pressure (MAP) and arterial blood gases. Endtidal partial pressure of carbon dioxide (pCO2) was controlled at 38 mmHg by adjusting the minute ventilation according to the reading of an CO2 analyzer (Capstar-100 IITC, Inc., Woodland Hills, Calif.). Blood samples were collected at the beginning and end of the experiment and analyzed using a blood gas analyzer (ABL 300, Radiometer, Copenhagen, Denmark) to validate the endtidal pCO2 readings. Anesthesia was maintained by administering additional amounts of thiobutabarbital (8 mg/kg i.v.) as needed. Rectal body temperature was maintained at 37±1° C.

As for `CCCCc1ccc(N=CNO)c(C)c1` [HET0016, N-hydroxy-N′-(4-butyl-2-methylphenyl)-formamidine], the EET formation result in data set [1] is “did not inhibit”. For the same compound, the “inhibition of rat 20-HETE synthesizing enzymes” value in data set [2] is on record as “about 20%”. The compound further registered an inhibition at 1 µM against PGH1 synthase of 20%. For the same compound, in the data set on rats with MCA occlusion (0.1 mg/kg i.v. just after reperfusion, n=10), the infarct volume worked out at 10.7±2.6%. In the data set on rats with MCA occlusion (1 mg/kg i.v. just after reperfusion, n=17), this compound came in with an infarct volume of 9.7±2.1%. The IC50 in the data set with canine neutrophils worked out at 10.2 ± 1.3 nM. Besides, in data set [3], the “MAP (blood pressure) versus vehicle” value is “no difference” and the “endtidal pCO2 versus vehicle” value is given as “no significant differences”.
